Laboratory results reported in BindingDB's records for doi:10.1016/j.bmcl.2012.09.045 (East China University of Science and Technology, 2012).

Target: T1, Bile acid receptor (Homo sapiens, UniProt Q96RI1)
T1 sequence (Q96RI1 whole entry): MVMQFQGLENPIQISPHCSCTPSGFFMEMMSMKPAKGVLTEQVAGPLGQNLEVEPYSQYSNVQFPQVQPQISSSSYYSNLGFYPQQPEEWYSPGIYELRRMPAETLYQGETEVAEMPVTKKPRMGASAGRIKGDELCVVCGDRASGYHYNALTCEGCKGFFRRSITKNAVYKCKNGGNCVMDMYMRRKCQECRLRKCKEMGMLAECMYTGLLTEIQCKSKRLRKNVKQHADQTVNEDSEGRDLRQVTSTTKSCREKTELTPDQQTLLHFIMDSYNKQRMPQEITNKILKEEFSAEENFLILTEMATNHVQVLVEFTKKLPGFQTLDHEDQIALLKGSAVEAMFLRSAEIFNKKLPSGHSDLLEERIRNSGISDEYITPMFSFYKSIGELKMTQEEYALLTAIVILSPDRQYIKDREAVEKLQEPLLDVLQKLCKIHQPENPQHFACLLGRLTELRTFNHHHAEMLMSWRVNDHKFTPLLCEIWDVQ
Test: Agonist activity at FXR

EC50: 343 nM
SMILES: COC(=O)/C=C/c1cccc(N(Cc2ccc(-c3ccc(C(C)(C)C)cc3)cc2)C(=O)C(C)C)c1
